Measurements reported in patent publication US8758816B2, “Compositions comprising azelastine and methods of use thereof” (priority 2004, dated 2014).

Test system: patients with seasonal allergic rhinitis (SAR)
Assay: MP 428 two-week randomized double-blind study: Total Nasal Symptom Score (TNSS), change from baseline
Format: in vivo, human
Set-up: key to Change from Baseline in AM TNSS, Mean / Change from Baseline in AM TNSS, LS Mean / Change from Baseline in AM TNSS, Median: TNSS sum of 4 symptoms each 0-3 (0=none, 3=severe); change from baseline
Method: A two-week, randomized, double-blind study, which evaluated the effects of the co-administration of ASTELIN® (azelastine hydrochloride (HCl)) and FLONASE® (fluticasone propionate) compared to either product alone in patients with seasonal allergic rhinitis (SAR) was conducted during the 2006 Texas mountain cedar season. After a 5-day placebo lead-in period, 151 patients with moderate-to-severe allergic rhinitis symptoms were randomized to either: (1) (49 total patients) ASTELIN® (azelastine hydrochloride (HCl)) plus placebo saline nasal spray 2 sprays per nostril, 15 minutes apart, twice daily (AM & PM); (2) (50 total patients) FLONASE® (fluticasone propionate) plus placebo saline nasal spray, 2 sprays per nostril, 15 minutes apart, once daily (AM) and two sessions of placebo saline nasal spray, 2 sprays per nostril, 15 minutes apart (PM); or (3) (52 total patients) the co-administration of ASTELIN® (azelastine hydrochloride (HCl)) 2 sprays per nostril plus FLONASE® (fluticasone propionate) 2 sprays per nostril (AM), 15 minutes apart, and ASTELIN® (azelastine hydrochloride (HCl)) 2 sprays per nostril plus placebo saline nasal spray, 15 minutes apart, (PM) for a 2-week double-blind treatment period.
The primary efficacy variable was the change from baseline in the Total Nasal Symptom Score (TNSS), which comprised sneezing, itchy nose, runny nose, and nasal congestion (individual symptoms scores were assigned a value between 0 and 3, where 0=no symptoms and 3=severe symptoms). This study was not statistically designed to assess the differences between ASTELIN® and FLONASE®.

[1] = Day 5, Intent-to-Treat Population
[2] = Day 6, Intent-to-Treat Population
[3] = Day 7, Intent-to-Treat Population
[4] = Day 8, Intent-to-Treat Population
[5] = Day 9, Intent-to-Treat Population

CCC(=O)O[C@]1(C(=O)SCF)[C@H](C)C[C@H]2[C@@H]3C[C@H](F)C4=CC(=O)C=C[C@]4(C)[C@@]3(F)[C@@H](O)C[C@@]21C [Fluticasone, fluticasone propionate]
Percent Change from Baseline in AM and PM Combined TNSS, Mean [1]: −26.89% | Percent Change from Baseline in AM and PM Combined TNSS, Median [1]: −22.77% | Percent Change from Baseline in PM TNSS, LS Mean [1]: −27.51% | Percent Change from Baseline in PM TNSS, Mean [1]: −27.06% | Percent Change from Baseline in PM TNSS, Median [1]: −22.22% | Change from Baseline in AM and PM Combined TNSS, LS Mean (Day 5, Intent-to-Treat Population, ANCOVA model): −5.20 | Change from Baseline in AM and PM Combined TNSS, LS Mean (Day 5, Per-Protocol Population): −5.23 | Change from Baseline in AM and PM Combined TNSS, Mean (Day 5, Per-Protocol Population): −5.23 | Change from Baseline in AM and PM Combined TNSS, Median (Day 5, Per-Protocol Population): −4.40 | Percent Change from Baseline in AM and PM Combined TNSS, LS Mean (Day 5, Per-Protocol Population): −27.42% | Percent Change from Baseline in AM and PM Combined TNSS, Mean (Day 5, Per-Protocol Population): −27.16% | Percent Change from Baseline in AM and PM Combined TNSS, Median (Day 5, Per-Protocol Population): −22.77% | Change from Baseline in AM TNSS, LS Mean [2]: −2.59 | Change from Baseline in AM TNSS, Mean [2]: −2.57 | Change from Baseline in AM TNSS, Median [2]: −2.20 | Change from Baseline in AM and PM Combined TNSS, Mean [2]: −5.10 | Change from Baseline in AM and PM Combined TNSS, Median [2]: −4.45 | Change from Baseline in PM TNSS, LS Mean [2]: −2.53 | Change from Baseline in PM TNSS, Mean [2]: −2.53 | Change from Baseline in PM TNSS, Median [2]: −2.00 | Percent Change from Baseline in AM TNSS, LS Mean [2]: −27.42% | Percent Change from Baseline in AM TNSS, Mean [2]: −27.12% | Percent Change from Baseline in AM TNSS, Median [2]: −23.81% | Percent Change from Baseline in AM and PM Combined TNSS, LS Mean [2]: −27.15% | Percent Change from Baseline in AM and PM Combined TNSS, Mean [2]: −26.90% | Percent Change from Baseline in AM and PM Combined TNSS, Median [2]: −22.20% | Percent Change from Baseline in PM TNSS, LS Mean [2]: −26.81% | Percent Change from Baseline in PM TNSS, Mean [2]: −26.62% | Percent Change from Baseline in PM TNSS, Median [2]: −22.22% | Change from Baseline in AM and PM Combined TNSS, LS Mean (Day 6, Intent-to-Treat Population, ANCOVA model): −5.12 | Change from Baseline in AM and PM Combined TNSS, LS Mean (Day 6, Per-Protocol Population): −5.11 | Change from Baseline in AM and PM Combined TNSS, Mean (Day 6, Per-Protocol Population): −5.12 | Change from Baseline in AM and PM Combined TNSS, Median (Day 6, Per-Protocol Population): −4.45 | Percent Change from Baseline in AM and PM Combined TNSS, LS Mean (Day 6, Per-Protocol Population): −27.15% | Percent Change from Baseline in AM and PM Combined TNSS, Mean (Day 6, Per-Protocol Population): −26.95% | Percent Change from Baseline in AM and PM Combined TNSS, Median (Day 6, Per-Protocol Population): −22.20% | Change from Baseline in AM TNSS, LS Mean [3]: −2.55 | Change from Baseline in AM TNSS, Mean [3]: −2.57 | Change from Baseline in AM TNSS, Median [3]: −2.00 | Change from Baseline in AM and PM Combined TNSS, Mean [3]: −5.02 | Change from Baseline in AM and PM Combined TNSS, Median [3]: −5.00 | Change from Baseline in PM TNSS, LS Mean [3]: −2.50 | Change from Baseline in PM TNSS, Mean [3]: −2.45 | Change from Baseline in PM TNSS, Median [3]: −2.00 | Percent Change from Baseline in AM TNSS, LS Mean [3]: −26.16% | Percent Change from Baseline in AM TNSS, Mean [3]: −26.29% | Percent Change from Baseline in AM TNSS, Median [3]: −22.22% | Percent Change from Baseline in AM and PM Combined TNSS, LS Mean [3]: −26.00% | Percent Change from Baseline in AM and PM Combined TNSS, Mean [3]: −25.75% | Percent Change from Baseline in AM and PM Combined TNSS, Median [3]: −23.81% | Percent Change from Baseline in PM TNSS, LS Mean [3]: −25.72% | Percent Change from Baseline in PM TNSS, Mean [3]: −25.18% | Percent Change from Baseline in PM TNSS, Median [3]: −20.45% | Change from Baseline in AM and PM Combined TNSS, LS Mean (Day 7, Intent-to-Treat Population, ANCOVA model): −5.06 | Change from Baseline in AM and PM Combined TNSS, LS Mean (Day 7, Per-Protocol Population): −4.98 | Change from Baseline in AM and PM Combined TNSS, Mean (Day 7, Per-Protocol Population): −4.99 | Change from Baseline in AM and PM Combined TNSS, Median (Day 7, Per-Protocol Population): −5.00 | Percent Change from Baseline in AM and PM Combined TNSS, LS Mean (Day 7, Per-Protocol Population): −25.63% | Percent Change from Baseline in AM and PM Combined TNSS, Mean (Day 7, Per-Protocol Population): −25.57% | Percent Change from Baseline in AM and PM Combined TNSS, Median (Day 7, Per-Protocol Population): −23.81% | Change from Baseline in AM TNSS, LS Mean [4]: −2.40 | Change from Baseline in AM TNSS, Mean [4]: −2.36 | Change from Baseline in AM TNSS, Median [4]: −1.67 | Change from Baseline in AM and PM Combined TNSS, Mean [4]: −4.55 | Change from Baseline in AM and PM Combined TNSS, Median [4]: −3.70 | Change from Baseline in PM TNSS, LS Mean [4]: −2.24 | Change from Baseline in PM TNSS, Mean [4]: −2.18 | Change from Baseline in PM TNSS, Median [4]: −2.00 | Percent Change from Baseline in AM TNSS, LS Mean [4]: −25.01% | Percent Change from Baseline in AM TNSS, Mean [4]: −24.67% | Percent Change from Baseline in AM TNSS, Median [4]: −19.23% | Percent Change from Baseline in AM and PM Combined TNSS, LS Mean [4]: −23.87% | Percent Change from Baseline in AM and PM Combined TNSS, Mean [4]: −23.38% | Percent Change from Baseline in AM and PM Combined TNSS, Median [4]: −20.97% | Percent Change from Baseline in PM TNSS, LS Mean [4]: −22.44% | Percent Change from Baseline in PM TNSS, Mean [4]: −21.91% | Percent Change from Baseline in PM TNSS, Median [4]: −21.95% | Change from Baseline in AM and PM Combined TNSS, LS Mean (Day 8, Intent-to-Treat Population, ANCOVA model): −4.64 | Change from Baseline in AM and PM Combined TNSS, LS Mean (Day 8, Per-Protocol Population): −4.61 | Change from Baseline in AM and PM Combined TNSS, Mean (Day 8, Per-Protocol Population): −4.59 | Change from Baseline in AM and PM Combined TNSS, Median (Day 8, Per-Protocol Population): −3.70 | Percent Change from Baseline in AM and PM Combined TNSS, LS Mean (Day 8, Per-Protocol Population): −23.68% | Percent Change from Baseline in AM and PM Combined TNSS, Mean (Day 8, Per-Protocol Population): −23.43% | Percent Change from Baseline in AM and PM Combined TNSS, Median (Day 8, Per-Protocol Population): −20.97% | Change from Baseline in AM TNSS, LS Mean [5]: −2.43 | Change from Baseline in AM TNSS, Mean [5]: −2.38
